Experiment: Cytotoxicity against mouse L1210/0 cells after 48 hrs
Assay type: cell-based
Settings: Mus musculus, L1210/0, 48 h

| SMILES | IC50 [µM] |
| --- | --- |
| O=c1[nH]c(=O)n(COCCO)cc1Cl | > 200 |
| O=c1ccn(COCCO)c(=O)[nH]1 | > 200 |
| Cc1cn(COCCO)c(=O)[nH]c1=O | > 200 |
| CC(O)Cn1cnc2c(F)nc(N)nc21 (stereo not given) | > 200 |
| O=c1[nH]c(=O)n(COCCO)cc1I | > 200 |
| Nc1ncnc2c1ncn2CC1CCC(CO)C1 (stereo not given) | > 200 |
| O=c1ccn(CC2CCC(CO)C2)c(=O)[nH]1 (stereo not given) | > 200 |
| Nc1ccn(C[C@@H]2C[C@H](CO)c3ccccc32)c(=O)n1 | > 200 |
| CC(=O)OC(C)Cn1cnc2c(Cl)nc(N)nc21 (stereo not given) | > 200 |
| C[S+]([O-])c1cn([C@H]2C[C@H](O)[C@@H](CO)O2)c(=O)[nH]c1=O (stereo not given in full) | > 200 |
| CC1(C)[C@@H](CCCO)C[C@H]1n1nnc2c(Cl)nc(N)nc21 | > 200 |
| OC[C@@H]1CCC[C@H]1n1cnc2c(O)ncnc21 | > 200 |
| COc1nc(I)nc2c1ncn2COCCO | > 200 |
| O=c1[nH]c(=O)n([C@H]2C[C@H](O)[C@@H](CO)O2)cc1/C=C/Cl | > 200 |
| O=c1ccn([C@@H]2C[C@H](CO)C[C@@H]2CO)c(=O)[nH]1 | > 200 |
| O=C1O/C(=C\Cn2ccc(=O)[nH]c2=O)C(Cc2ccccc2)=C1O | > 200 |
| C[C@H](O)C1CC(Cn2nnc3c(=O)[nH]cnc32)C1(C)C (stereo not given in full) | > 200 |
| CCCc1cn([C@H]2C[C@H](O)[C@@H](CO)O2)c(=O)[nH]c1=O | > 200 |
| CNc1nc2c(=O)[nH]c(N)nc2n1COCCO | > 200 |
| CC1(C)C(CO)CC1Cn1cnc2c(=O)[nH]c(N)nc21 (stereo not given) | > 200 |
| COc1c(C)c(-c2cn([C@H]3C[C@H](O)[C@@H](CO)O3)c(=O)[nH]c2=O)c(OC)c2ccccc12 | > 200 |
| O=c1ccn([C@@H]2O[C@H](CO)[C@H](F)[C@@H]2O)c(=O)[nH]1 | > 200 |
| CC(C)(C)C#Cc1cn([C@@H]2O[C@H](CO)[C@@H](O)[C@@H]2O)c(=O)[nH]c1=O | > 200 |
| CC1(C)C(CO)CC1Cn1nnc2c(Cl)nc(N)nc21 (stereo not given) | > 200 |

| SMILES | IC50 [µM] |
| --- | --- |
| COC1=C(OC)/C(=C/C(n2cnc3c(N)ncnc32)P(O)(=S)OC)OC1=O (stereo not given) | > 200 |
| CCC#Cc1cn([C@H]2C[C@H](O)[C@@H](CO)O2)c(=O)[nH]c1=O | > 200 |
| CC1(C)C(CO)CC1Cn1cnc2c(N)nc(N)nc21 (stereo not given) | > 200 |
| Cc1ccc(S(=O)(=O)OCCC#Cc2cn([C@H]3C[C@H](O)[C@@H](CO)O3)c(=O)[nH]c2=O)cc1 | > 200 |
| Nc1ncnc2c1ncn2[C@@H]1O[C@H](C=O)C[C@@H]1O | > 200 |
| COc1cc(-c2cn([C@H]3C[C@H](O)[C@@H](CO)O3)c(=O)[nH]c2=O)c(OC)c(C)c1C | > 200 |
| CCC#Cc1cn([C@@H]2O[C@H](CO)[C@@H](O)[C@@H]2O)c(=O)[nH]c1=O | > 200 |
| O=C1C=CN(COCCO)C(=O)C1 | > 200 |
| COCC#Cc1cn([C@H]2C[C@H](O)[C@@H](CO)O2)c(=O)[nH]c1=O | > 200 |
| CC(O)Cn1cnc2c(N)nc(I)nc21 (stereo not given) | > 200 |
| Nc1nc(O)c2nnn([C@H]3CCCC[C@H]3CO)c2n1 | > 200 |
| O=c1ccn(C[C@@H]2CCC[C@H]2CO)c(=O)[nH]1 | > 200 |
| CCCC/C=C\c1cn([C@H]2C[C@H](O)[C@@H](CO)O2)c(=O)[nH]c1=O | > 200 |
| Nc1ncnc2c1ncn2[C@@H]1O[C@H](/C=C/F)[C@H](O)[C@@H]1O | > 200 |
| Nc1ncnc2c1ncn2C[C@@H]1CCC[C@H]1CO | > 200 |
| CC1(C)C(CO)CC1Cn1nnc2c(=O)[nH]c(N)nc21 (stereo not given) | > 200 |
| CN(C)c1nc2c(=O)[nH]c(N)nc2n1COCCO | > 200 |
| CC1(C)[C@@H](CCCO)C[C@H]1n1cnc2c(=O)[nH]c(N)nc21 | > 200 |
| Nc1nc(O)c2ncn([C@H]3CCCC[C@H]3CO)c2n1 | > 200 |
| CC1(C)[C@@H](CO)CC[C@@]1(C)Cn1ccc(=O)[nH]c1=O | > 200 |
| C[C@H](O)C1CC(CCn2cnc3c(=O)[nH]cnc32)C1(C)C (stereo not given in full) | > 200 |
| Nc1nc2c(nc(O)n2COCCO)c(=O)[nH]1 | > 200 |
| C=CC#Cc1cn([C@H]2C[C@H](O)[C@@H](CO)O2)c(=O)[nH]c1=O | > 200 |
| Nc1nc(I)nc2c1ncn2COCCO | > 200 |

| SMILES | IC50 [µM] |
| --- | --- |
| CC#Cc1cn([C@H]2C[C@H](O)[C@@H](CO)O2)c(=O)[nH]c1=O | > 200 |
| COC1=C(OC)C(=CCn2cnc3c(N)ncnc32)OC1=O | > 200 |
| O=c1[nH]c(=O)n([C@H]2C[C@H](O)[C@@H](CO)O2)cc1C#Cc1ccccc1 | > 200 |
| CO/N=C/C1CC(n2cnc3c(N)ncnc32)C(O)C1O (stereo not given) | > 200 |
| CC(C)(C)C#Cc1cn([C@H]2C[C@H](O)[C@@H](CO)O2)c(=O)[nH]c1=O | > 200 |
| CC(O)Cn1cnc2c(S)nc(F)nc21 (stereo not given) | > 200 |
| CCCCC#Cc1cn([C@H]2C[C@H](O)[C@@H](CO)O2)c(=O)[nH]c1=O | > 200 |
| CC1(C)[C@@H](CCCO)C[C@H]1n1nnc2c(=O)[nH]c(N)nc21 | > 200 |
| OC[C@@H]1CCC[C@H]1Cn1cnc2c(O)ncnc21 | > 200 |
| Nc1nc2c(nc(Br)n2COCCO)c(=O)[nH]1 | > 200 |
| C[C@@]1(CO)O[C@H](c2ccc(N)cc2F)C[C@@H]1O | > 200 |
| O=c1[nH]c(=O)n([C@H]2C[C@H](O)[C@@H](CO)O2)cc1C#CCCCO | > 200 |
| CCCCCCc1cn([C@H]2C[C@H](O)[C@@H](CO)O2)c(=O)[nH]c1=O | > 200 |
| O=c1[nH]c(=O)n([C@H]2C[C@H](O)[C@@H](CO)O2)cc1O | > 200 |
| CC(O)Cn1cnc2c(Cl)nc(I)nc21 (stereo not given) | > 200 |
| O=c1ccn(C[C@@H]2C[C@H](CO)c3ccccc32)c(=O)[nH]1 | > 200 |
| C[C@H](O)C1CC(Cn2cnc3c(=O)[nH]cnc32)C1(C)C (stereo not given in full) | > 200 |
| Nc1nc(Cl)c2ncn(COCCO)c2n1 | > 200 |
| O=c1[nH]c(=O)n(C2C[C@@H](CO)[C@@H](CO)C2)cc1I (stereo not given in full) | > 200 |
| O=c1[nH]c(=O)n(COCCO)cc1F | > 200 |
| Nc1ccn(COCCO)c(=O)n1 | > 200 |
| O=c1[nH]c(=O)n(COCCO)cc1Br | > 200 |
| Nc1nc(=O)ccn1COCCO | > 200 |
| CC(=O)OCCOCn1cnc2c(Cl)nc(N)nc21 | > 200 |

| SMILES | IC50 [µM] |
| --- | --- |
| CN(C)c1ncnc2c1ncn2COCCO | > 200 |
| COC1=C(OC)C(O)(CCn2cnc3c(Cl)ncnc32)OC1=O (stereo not given) | > 200 |
| COC1=C(OC)C(O)(CCn2cnc3c(N)ncnc32)OC1=O (stereo not given) | > 200 |
| O=c1[nH]c(=O)n(COCCO)cc1/C=C/Br | > 200 |
| O=c1[nH]c(=O)n(COCCO)cc1[N+](=O)[O-] | > 200 |
| O=C1O/C(=C\Cn2ccc(=O)[nH]c2=O)C(O)=C1O | > 200 |
| CCCCCC#Cc1cn([C@H]2C[C@H](O)[C@@H](CO)O2)c(=O)[nH]c1=O | > 200 |
| CC1(C)[C@@H](CO)CC[C@@]1(C)Cn1cc(Br)c(=O)[nH]c1=O | > 200 |
| O=c1[nH]c(=O)n([C@@H]2CCC[C@H]2CO)cc1I | > 200 |
| O=c1ccn([C@@H]2CCC[C@H]2CO)c(=O)[nH]1 | > 200 |
| CC1(C)[C@@H](CCCO)C[C@H]1n1cnc2c(Cl)nc(N)nc21 | > 200 |
| CSc1cn([C@H]2C[C@H](O)[C@@H](CO)O2)c(=O)[nH]c1=O | > 200 |
| N#Cc1cn([C@H]2C[C@H](O)[C@@H](CO)O2)c(=O)[nH]c1=O | > 200 |
| O=c1[nH]cnc2c1nnn2[C@@H]1C[C@H](CO)[C@@H](CO)[C@H]1CO | > 200 |
| O=c1[nH]c(=O)n([C@H]2C[C@H](O)[C@@H](CO)O2)cc1C#CCO | > 200 |
| CC(=O)OC(C)Cn1cnc2c(N)nc(I)nc21 (stereo not given) | > 200 |
| CC1(C)C(CO)CC1Cn1cnc2c(Cl)nc(N)nc21 (stereo not given) | > 200 |
| O=c1[nH]c(=O)n([C@H]2C[C@H](O)[C@@H](CO)O2)cc1C#CCCO | > 200 |
| CC1(C)[C@@H](CCCO)C[C@H]1n1nnc2c(N)nc(N)nc21 | > 200 |
| O=c1[nH]c(=O)n(C[C@H]2CCC[C@H]2CO)cc1I | > 200 |
| C#COc1cn([C@H]2C[C@H](O)[C@@H](CO)O2)c(=O)[nH]c1=O | > 200 |
| OCCOCn1cnc2c(O)ncnc21 | > 200 |
| CC1(C)[C@@H](CO)CC[C@@]1(C)Cn1cnc2c(=O)[nH]cnc21 | > 200 |
| CC1(C)C(CO)CC1Cn1nnc2c(N)nc(N)nc21 (stereo not given) | > 200 |

| SMILES | IC50 [µM] |
| --- | --- |
| O=c1[nH]cnc2c1ncn2C1CC(CO)C(CO)C1 (stereo not given) | > 200 |
| COC1=C(OC)/C(=C/CP(=O)(OC)OC)OC1=O | > 200 |
| CS(=O)(=O)Cc1cn([C@H]2C[C@H](O)[C@@H](CO)O2)c(=O)[nH]c1=O | > 200 |
| O=c1[nH]c(=O)n([C@H]2C[C@H](O)[C@@H](CO)O2)cc1C1SCCS1 | > 200 |
| Nc1nc2c(nc(Cl)n2COCCO)c(=O)[nH]1 | > 200 |
| OC[C@H]1C[C@@H](Cn2cnc3c(O)ncnc32)c2ccccc21 | > 200 |
| CCCC#Cc1cn([C@H]2C[C@H](O)[C@@H](CO)O2)c(=O)[nH]c1=O | > 200 |
| O=c1[nH]cnc2c1nnn2CC1CCC(CO)C1 (stereo not given) | > 200 |
| O=c1[nH]c(=O)n(CC2CCC(CO)C2)cc1I (stereo not given) | > 200 |
| CCO/N=C\C1OC(n2cnc3c(N)ncnc32)C(O)C1O (stereo not given) | > 200 |
| Nc1nc2c(nc(N)n2COCCO)c(=O)[nH]1 | > 200 |
| CC1(C)[C@@H](CO)CC[C@@]1(C)Cn1cc(I)c(=O)[nH]c1=O | > 200 |
| O=c1[nH]cnc2c1nnn2C[C@H]1CCC[C@H]1CO | > 200 |
| O=c1[nH]cnc2c1ncn2CC1CCC(CO)C1 (stereo not given) | > 200 |
| Nc1nc(=O)n(COCCO)cc1[N+](=O)[O-] | > 200 |
| C[C@@]1(CO)O[C@H](c2cc(F)c(N)cc2F)C[C@@H]1O | > 200 |
| O=c1[nH]cnc2c1ncn2[C@@H]1C[C@@H]2COC[C@H]2[C@H]1CO | > 200 |
| Cc1cn(C[C@@H]2C[C@H](CO)c3ccccc32)c(=O)[nH]c1=O | > 200 |
| Nc1ncnc2c1ncn2C1OC(/C=N/O)CC1O (stereo not given) | > 200 |
| COc1c(C)c(C)c(OC)c(-c2cn([C@H]3C[C@H](O)[C@@H](CO)O3)c(=O)[nH]c2=O)c1C | > 200 |
| O=C1O/C(=C\Cn2cc(C(F)(F)F)c(=O)[nH]c2=O)C(O)=C1O | > 200 |
| O=c1[nH]c(=O)n([C@@H]2C[C@H](CO)C[C@@H]2CO)cc1I | > 200 |
| CC1(C)[C@@H](CO)CC[C@@]1(C)Cn1nnc2c(=O)[nH]cnc21 | > 200 |
| COc1ccc(C(=O)/C=C/c2cc(O)nc(O)n2)cc1 | > 200 |
